Laboratory results as given in publication PMC8819291, “Adaptively evolved human oral actinomyces‐sourced defensins show therapeutic potential” (EMBO Molecular Medicine, 2021).
Where a SMILES comes first, the peptide text is derived from it. Bridges are numbered along the chain shown (N, C = ends).

How the values were obtained:
HL‐60 cells = experiment: Peptide-induced MCP-1 release (ELISA); assay type: cell-based, human; settings: 24 h
Procedure: A549 and HL‐60 cells were purchased from the Cell Resource Center of the Chinese Academy of Medical Sciences (Beijing, China). They were tested for mycoplasma contamination with the Mycoplasma Detection Kit (Solarbio, China) and only negative cultures were used in our experiments. The cells were cultured in complete Dulbecco’s Modified Eagle Medium (DMEM) supplemented with 10% fetal bovine serum (FBS), penicillin (100 units/ml), and streptomycin ([…]) at 37°C in 5% CO2. The culture medium was changed every 2 days. Cells were passaged every 4–5 days with 0.25% trypsin (Gibco, USA). For enzyme‐linked immunosorbent assay (ELISA) (Hara et al, [2008]), A549 or HL‐60 cells were seeded in six‐well plates at a density of 1 × 10^5 cells/well and were incubated at 37°C in 5% CO2 overnight. Medium was aspirated and replaced with fresh complete DMEM supplemented with 10% FBS or serum‐free medium, both containing different concentrations of polypeptides for 24 h. Then, the supernatants were harvested for quantification of the IL‐8 amount in A549 by the Human CXCL8/IL‐8 Quantikine ELISA Kit (R&D Systems Inc., Minneapolis, MN, USA) and the MCP‐1 amount in HL‐60 by the Human MCP‐1 ELISA Kit (Boster Biological Technology Co., Ltd, Wuhan, China) as per the manufactures’ instructions.

Kv2.1 = Kv2.1 (Homo sapiens, UniProt Q14721); settings: 100 μM AMSIN
Procedure: (§1) For the expression of Nav1.5, Kv1.4, Kv1.5, Kv2.1, Kv4.3, and hERG in Xenopus oocytes, the linearized plasmids were transcribed using the T7 or SP6 mMESSAGE‐mMACHINE transcription kit (Ambion). The harvesting of stage V–VI oocytes from an anesthetized female Xenopus laevis frog was previously described (Zhu et al, [2020]). Oocytes were injected with 50 nl of cRNA at a concentration of 1 ng/nl using a micro‐injector (Drummond Scientific, USA). The oocytes were incubated in a solution containing (in mM): NaCl, 96; KCl, 2; CaCl2, 1.8; MgCl2, 2 and HEPES, 5 (pH 7.4), supplemented with 50 mg/l gentamycin sulfate. Two‐electrode voltage‐clamp recordings were performed at room temperature (18–22°C) using a Geneclamp 500 amplifier (Axon Instruments, USA) controlled by a pClamp data acquisition system (Axon Instruments, USA). Whole‐cell currents from oocytes were recorded 1–4 days after injection. Bath solution composition was (in mM): NaCl, 96; KCl, 2; CaCl2, 1.8; MgCl2, 2 and HEPES, 5 (pH 7.4). Voltage and current electrodes were filled with 3 M KCl. Resistances of both electrodes were kept between 0.7 and 1.5 M Ω. Elicited currents were sampled at 1 kHz and filtered at 0.5 kHz (for potassium currents) or sampled at 20 kHz and filtered at 2 kHz (for sodium currents) using a four‐pole low‐pass Bessel filter. […] Current traces of hERG channels were elicited by applying a +40 mV prepulse for 2 s followed by a step to −120 mV for 2 s.

Nav1.5 = Nav1.5 (Homo sapiens, UniProt Q14524); settings: 100 μM AMSIN
Procedure: as §1

Kv4.3 = Kv4.3 (Homo sapiens, UniProt Q9UK17); settings: 100 μM AMSIN
Procedure: as §1

Kv1.5 = Kv1.5 (Homo sapiens, UniProt P22460); settings: 100 μM AMSIN
Procedure: as §1

hERG = hERG (Homo sapiens, UniProt Q12809); settings: 100 μM AMSIN
Procedure: as §1

Kv1.4 = Kv1.4 (Homo sapiens, UniProt P22459); settings: 100 μM AMSIN
Procedure: as §1

[1] = system: SSAN (Streptococcus sanguinis); experiment: Analysis of lysis in liquid culture; assay type: cell-based; settings: culture at OD600 of 0.2, 5–10 μM AMSIN, 24 h
[2] = 10 μg i.p. once daily for 3 days, serum after 2 days, 1:100 diluted over AMSIN-immobilized CM5 chip
Procedure: Firstly, three female ICR mice (25 g each mouse, 6 weeks of age) were injected intraperitoneally (i.p.) with 10‐μg protein dissolved in 0.9% NaCl once daily (OD) for 3 days. One female ICR mouse of 25 g (6 weeks of age) injected with 0.9% NaCl in the same manner was used as control. Blood samples were then collected from the mouse retro‐orbital plexus after 2 days. Sera were obtained by centrifugation and stored at –20°C until further use. […] In this process, bovine serum albumin (BSA) was added at a final concentration of 0.25 mg/ml to inhibit non‐specific binding. The amount of bound material, if any, was determined by measuring the increase in RUs.

[3] = Stability in H2O (residual activity by inhibition-zone assay); assay type: physicochemical; settings: 48‐h incubation in H2O at 37°C
HNP1&2 = HNP1&2 (Homo sapiens, UniProt P59665); experiment: Bio-affinity ESI-MS for non-covalent complexes; assay type: binding; settings: 52.5 μM AMSIN and 73.5 μM HNP1&2 in 25 mM NH4OAc (pH5.2)
Procedure: (§2) All components for interactions were dissolved in 25 mM ammonium acetate (pH5.2). Electrospray spectra were recorded with Waters SynaptG2‐Si mass spectrometer (Waters, Manchester, UK) and measurements were performed with positive ESI in resolution mode. Ions were scanned in a mass range of 500–2,000 m/z with the following conditions: the capillary voltage at 1,500 V; the cone voltage at 40 V; the source block temperature at 30°C. Spectra were recorded and processed by the software Masslynx4.1 (Waters, Manchester, UK).

hLZc (lysozyme C) = biological target: T1, hLZc (lysozyme C) (Homo sapiens, UniProt P61626); experiment: Bio-affinity ESI-MS for non-covalent complexes; assay type: binding; settings: 52.5 μM AMSIN and 50 μM hLZc in 25 mM NH4OAc (pH5.2)
T1 construct: lysozyme C) isolated from human saliva; from tissue; host or cells: human saliva
Procedure: as §2

[4] = system: SM (Streptococcus mutans); experiment: Killing kinetics assay; assay type: cell-based; settings: peptide dose 4 × C L
Procedure: In brief, SM was grown overnight in broth medium and diluted in fresh medium to 1 × 10^8 CFU/ml. […] Viable cell counts were obtained after 24 h of incubation at 37°C. Bacterial growth in the medium without peptides was used as a control.

[5] = undiluted human serum (Human Serum AB), 0, 24 and 48 h, 37°C; read-out MRSA P1374, 1.0 nmol/well

T1 sequence (P61626 19-148): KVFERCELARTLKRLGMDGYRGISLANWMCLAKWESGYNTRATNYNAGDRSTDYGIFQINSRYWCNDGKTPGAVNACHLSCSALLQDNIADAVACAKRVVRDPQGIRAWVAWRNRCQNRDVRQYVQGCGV
Sequence of Kv2.1 (Q14721 whole entry): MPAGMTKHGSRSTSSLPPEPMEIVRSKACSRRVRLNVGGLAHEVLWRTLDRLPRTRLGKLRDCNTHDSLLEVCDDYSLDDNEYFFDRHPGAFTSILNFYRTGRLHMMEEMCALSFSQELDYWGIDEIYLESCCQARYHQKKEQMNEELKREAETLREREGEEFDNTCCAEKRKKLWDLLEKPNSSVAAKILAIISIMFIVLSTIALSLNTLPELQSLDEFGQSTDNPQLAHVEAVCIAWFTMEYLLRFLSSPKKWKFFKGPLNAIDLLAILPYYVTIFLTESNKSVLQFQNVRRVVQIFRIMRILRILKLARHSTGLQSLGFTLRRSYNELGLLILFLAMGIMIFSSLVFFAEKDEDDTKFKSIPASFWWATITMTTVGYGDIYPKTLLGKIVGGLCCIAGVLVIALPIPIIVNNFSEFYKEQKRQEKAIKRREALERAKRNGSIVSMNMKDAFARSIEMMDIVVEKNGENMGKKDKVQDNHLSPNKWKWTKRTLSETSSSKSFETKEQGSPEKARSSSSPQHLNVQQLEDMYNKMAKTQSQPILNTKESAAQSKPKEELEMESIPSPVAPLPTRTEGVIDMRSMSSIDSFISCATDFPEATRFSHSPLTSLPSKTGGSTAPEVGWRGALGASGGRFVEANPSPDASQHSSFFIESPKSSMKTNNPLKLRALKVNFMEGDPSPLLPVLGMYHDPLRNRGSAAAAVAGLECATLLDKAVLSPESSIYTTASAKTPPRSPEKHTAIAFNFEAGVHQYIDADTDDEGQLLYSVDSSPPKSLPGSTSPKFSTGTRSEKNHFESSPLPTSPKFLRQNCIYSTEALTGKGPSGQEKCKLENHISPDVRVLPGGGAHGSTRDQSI
Sequence of Kv1.5 (P22460 whole entry): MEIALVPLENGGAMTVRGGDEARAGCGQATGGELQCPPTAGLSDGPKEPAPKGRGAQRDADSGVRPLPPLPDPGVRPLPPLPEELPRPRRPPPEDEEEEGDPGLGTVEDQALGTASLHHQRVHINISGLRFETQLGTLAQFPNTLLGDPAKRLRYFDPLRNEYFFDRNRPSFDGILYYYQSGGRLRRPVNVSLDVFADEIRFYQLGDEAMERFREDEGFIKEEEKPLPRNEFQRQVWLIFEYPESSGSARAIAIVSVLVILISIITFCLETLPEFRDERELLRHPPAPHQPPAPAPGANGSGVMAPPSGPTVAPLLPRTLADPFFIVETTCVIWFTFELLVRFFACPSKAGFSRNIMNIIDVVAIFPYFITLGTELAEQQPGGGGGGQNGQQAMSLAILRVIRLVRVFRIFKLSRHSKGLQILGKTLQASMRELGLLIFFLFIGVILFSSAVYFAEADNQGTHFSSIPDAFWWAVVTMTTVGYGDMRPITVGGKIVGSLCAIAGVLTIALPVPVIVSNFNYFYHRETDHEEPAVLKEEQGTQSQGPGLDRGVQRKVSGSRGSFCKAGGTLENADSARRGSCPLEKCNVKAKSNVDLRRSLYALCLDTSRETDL
Sequence of Kv4.3 (Q9UK17 whole entry): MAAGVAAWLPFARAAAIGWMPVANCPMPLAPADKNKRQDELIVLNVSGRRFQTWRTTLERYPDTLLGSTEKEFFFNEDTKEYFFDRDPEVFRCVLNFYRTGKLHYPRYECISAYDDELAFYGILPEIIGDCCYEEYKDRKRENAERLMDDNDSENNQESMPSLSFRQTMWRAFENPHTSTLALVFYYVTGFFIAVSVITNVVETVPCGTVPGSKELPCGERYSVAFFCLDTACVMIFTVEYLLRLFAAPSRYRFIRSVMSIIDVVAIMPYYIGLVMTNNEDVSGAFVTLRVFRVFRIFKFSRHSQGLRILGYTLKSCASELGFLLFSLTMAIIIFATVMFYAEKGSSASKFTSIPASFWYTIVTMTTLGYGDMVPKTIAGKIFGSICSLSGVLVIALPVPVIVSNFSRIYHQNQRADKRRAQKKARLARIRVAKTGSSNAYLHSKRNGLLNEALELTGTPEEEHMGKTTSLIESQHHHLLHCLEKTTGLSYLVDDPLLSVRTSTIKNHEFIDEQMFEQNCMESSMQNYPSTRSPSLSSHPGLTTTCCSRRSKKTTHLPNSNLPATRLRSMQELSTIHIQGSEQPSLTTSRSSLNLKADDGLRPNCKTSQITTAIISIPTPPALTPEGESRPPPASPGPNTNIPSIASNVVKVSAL
Sequence of HNP1&2 (P59665 66-94 limits assumed): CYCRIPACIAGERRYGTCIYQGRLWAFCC
Sequence of Kv1.4 (P22459 whole entry): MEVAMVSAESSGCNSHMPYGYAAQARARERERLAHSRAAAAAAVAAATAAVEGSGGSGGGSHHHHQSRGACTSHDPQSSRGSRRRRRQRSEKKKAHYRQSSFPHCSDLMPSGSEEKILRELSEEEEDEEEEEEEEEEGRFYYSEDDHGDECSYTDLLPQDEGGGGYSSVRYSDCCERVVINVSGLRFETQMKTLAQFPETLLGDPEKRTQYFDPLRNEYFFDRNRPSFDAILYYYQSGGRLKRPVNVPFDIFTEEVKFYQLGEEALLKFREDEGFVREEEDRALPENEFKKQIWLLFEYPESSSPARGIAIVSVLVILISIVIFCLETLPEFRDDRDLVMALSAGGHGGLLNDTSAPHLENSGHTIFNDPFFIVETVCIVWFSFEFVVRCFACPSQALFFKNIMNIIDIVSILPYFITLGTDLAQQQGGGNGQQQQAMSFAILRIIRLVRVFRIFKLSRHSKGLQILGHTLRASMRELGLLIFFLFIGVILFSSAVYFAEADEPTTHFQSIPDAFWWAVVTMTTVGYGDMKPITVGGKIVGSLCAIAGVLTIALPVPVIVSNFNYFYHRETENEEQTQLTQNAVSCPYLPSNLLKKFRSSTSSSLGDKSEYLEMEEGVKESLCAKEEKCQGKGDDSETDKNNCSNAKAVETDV
Sequence of Nav1.5 (Q14524 whole entry): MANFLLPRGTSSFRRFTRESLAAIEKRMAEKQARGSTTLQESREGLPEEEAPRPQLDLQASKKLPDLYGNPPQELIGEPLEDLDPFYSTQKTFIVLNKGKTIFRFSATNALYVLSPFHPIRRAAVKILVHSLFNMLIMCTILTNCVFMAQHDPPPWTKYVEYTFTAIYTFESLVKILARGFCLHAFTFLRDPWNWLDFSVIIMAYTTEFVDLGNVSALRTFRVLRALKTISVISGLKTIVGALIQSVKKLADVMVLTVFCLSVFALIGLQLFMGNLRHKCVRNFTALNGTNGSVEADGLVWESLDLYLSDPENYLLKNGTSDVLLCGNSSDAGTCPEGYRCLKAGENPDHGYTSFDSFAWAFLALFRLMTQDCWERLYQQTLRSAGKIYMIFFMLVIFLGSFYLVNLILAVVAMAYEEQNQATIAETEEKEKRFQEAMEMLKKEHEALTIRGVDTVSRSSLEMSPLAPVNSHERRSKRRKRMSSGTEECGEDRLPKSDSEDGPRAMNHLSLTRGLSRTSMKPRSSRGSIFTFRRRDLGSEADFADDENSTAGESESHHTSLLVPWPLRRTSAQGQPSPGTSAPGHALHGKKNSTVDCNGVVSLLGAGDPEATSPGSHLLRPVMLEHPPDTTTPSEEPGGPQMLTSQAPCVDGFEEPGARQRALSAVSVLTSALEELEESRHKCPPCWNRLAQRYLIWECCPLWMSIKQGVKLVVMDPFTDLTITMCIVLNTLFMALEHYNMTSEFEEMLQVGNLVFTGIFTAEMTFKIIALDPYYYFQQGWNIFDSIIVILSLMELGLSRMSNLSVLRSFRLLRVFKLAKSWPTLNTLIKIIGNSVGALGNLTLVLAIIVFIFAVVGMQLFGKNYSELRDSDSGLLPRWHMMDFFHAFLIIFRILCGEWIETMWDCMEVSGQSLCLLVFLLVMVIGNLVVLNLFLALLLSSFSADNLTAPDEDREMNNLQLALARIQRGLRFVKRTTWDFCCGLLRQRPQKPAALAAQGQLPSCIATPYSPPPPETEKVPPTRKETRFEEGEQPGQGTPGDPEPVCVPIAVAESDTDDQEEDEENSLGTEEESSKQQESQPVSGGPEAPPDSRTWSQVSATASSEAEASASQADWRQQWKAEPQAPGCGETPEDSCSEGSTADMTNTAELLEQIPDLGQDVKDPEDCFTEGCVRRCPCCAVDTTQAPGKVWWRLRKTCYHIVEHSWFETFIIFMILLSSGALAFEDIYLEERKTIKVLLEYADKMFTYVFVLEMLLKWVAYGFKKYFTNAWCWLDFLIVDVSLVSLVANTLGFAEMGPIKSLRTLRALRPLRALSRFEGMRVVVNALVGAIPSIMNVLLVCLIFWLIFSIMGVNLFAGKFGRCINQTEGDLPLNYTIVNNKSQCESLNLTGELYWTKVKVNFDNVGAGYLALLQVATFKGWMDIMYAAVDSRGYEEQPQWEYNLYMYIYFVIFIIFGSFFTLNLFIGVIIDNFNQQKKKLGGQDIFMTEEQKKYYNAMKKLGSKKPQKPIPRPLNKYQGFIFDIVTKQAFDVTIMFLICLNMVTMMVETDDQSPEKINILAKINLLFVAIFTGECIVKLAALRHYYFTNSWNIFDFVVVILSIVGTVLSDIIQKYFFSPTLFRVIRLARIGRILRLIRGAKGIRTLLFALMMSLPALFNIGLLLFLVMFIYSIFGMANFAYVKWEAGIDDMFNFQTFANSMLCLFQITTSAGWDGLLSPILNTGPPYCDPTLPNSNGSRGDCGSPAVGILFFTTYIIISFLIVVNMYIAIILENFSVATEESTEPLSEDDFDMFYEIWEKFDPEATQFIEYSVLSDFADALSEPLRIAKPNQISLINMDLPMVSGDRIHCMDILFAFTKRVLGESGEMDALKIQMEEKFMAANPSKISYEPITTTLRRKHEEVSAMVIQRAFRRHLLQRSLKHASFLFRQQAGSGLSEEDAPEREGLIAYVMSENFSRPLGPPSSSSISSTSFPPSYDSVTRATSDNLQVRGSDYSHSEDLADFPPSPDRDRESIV

For `CC[C@H](C)[C@@H]1NC(=O)[C@H](CCCCN)NC(=O)CNC(=O)[C@H](CCCNC(=N)N)NC(=O)[C@@H]2CSSC[C@H](NC(=O)CNC(=O)[C@H](Cc3ccccc3)NC(=O)CN)C(=O)N3CCC[C@H]3C(=O)N[C@@H](Cc3c[nH]c4ccccc34)C(=O)N[C@@H](CC(N)=O)C(=O)N[C@@H](C)C(=O)N[C@@H](Cc3ccc(O)cc3)C(=O)N[C@@H](CCC(=O)O)C(=O)N[C@H]3CSSC[C@H](NC(=O)[C@H]([C@@H](C)O)NC(=O)[C@H](CCC(N)=O)NC(=O)[C@H](CCCNC(=N)N)NC1=O)C(=O)N[C@@H](Cc1c[nH]cn1)C(=O)N[C@H](C(=O)N[C@@H](Cc1ccc(O)cc1)C(=O)O)CSSC[C@H](NC(=O)[C@H](Cc1c[nH]cn1)NC(=O)[C@H](CCCNC(=N)N)NC(=O)[C@H](CC(=O)O)NC3=O)C(=O)N[C@@H](C(C)C)C(=O)N[C@@H](CO)C(=O)N[C@@H](CCCCN)C(=O)NCC(=O)N[C@@H](Cc1ccc(O)cc1)C(=O)N[C@@H]([C@@H](C)O)C(=O)NCC(=O)NCC(=O)N[C@@H](CC(N)=O)C(=O)N2` [AMSIN] (H-GFGCPWNAYECDRHCVSKGYTGGNCRGKIRQTCHCY-OH; disulfide 4-25, 11-33, 15-35; N-terminus and C-terminus assumed), the “MCP-1” value (HL‐60 cells; FBS-containing medium, 25 μg/mL, replicate 1) was 380 pg/mL, the “MCP-1” value (HL‐60 cells; FBS-containing medium, 25 μg/mL, replicate 2) was 485 pg/mL and the “MCP-1” value (HL‐60 cells; FBS-containing medium, 25 μg/mL, replicate 3) was 359 pg/mL. The “MCP-1” value (HL‐60 cells; FBS-containing medium, 50 μg/mL, replicate 1) was 453 pg/mL, the “MCP-1” value (HL‐60 cells; FBS-containing medium, 50 μg/mL, replicate 2) was 523 pg/mL and the “MCP-1” value (HL‐60 cells; FBS-containing medium, 50 μg/mL, replicate 3) was 432 pg/mL. The “MCP-1” value (HL‐60 cells; FBS-containing medium, 100 μg/mL, replicate 1) was 419 pg/mL, the “MCP-1” value (HL‐60 cells; FBS-containing medium, 100 μg/mL, replicate 2) was 423 pg/mL and the “MCP-1” value (HL‐60 cells; FBS-containing medium, 100 μg/mL, replicate 3) was 398 pg/mL. The “MCP-1” value (HL‐60 cells; Serum-Free medium, 25 μg/mL, replicate 1) was 393 pg/mL, the “MCP-1” value (HL‐60 cells; Serum-Free medium, 25 μg/mL, replicate 2) was 431 pg/mL and the “MCP-1” value (HL‐60 cells; Serum-Free medium, 25 μg/mL, replicate 3) was 372 pg/mL. The “MCP-1” value (HL‐60 cells; Serum-Free medium, 50 μg/mL, replicate 1) was 447 pg/mL, the “MCP-1” value (HL‐60 cells; Serum-Free medium, 50 μg/mL, replicate 2) was 450 pg/mL and the “MCP-1” value (HL‐60 cells; Serum-Free medium, 50 μg/mL, replicate 3) was 426 pg/mL. For the same compound, the “MCP-1” value (HL‐60 cells; Serum-Free medium, 100 μg/mL, replicate 1) was 418 pg/mL, the “MCP-1” value (HL‐60 cells; Serum-Free medium, 100 μg/mL, replicate 2) was 427 pg/mL and the “MCP-1” value (HL‐60 cells; Serum-Free medium, 100 μg/mL, replicate 3) was 397 pg/mL. For the same compound, the “Effect on channel current” value (Kv2.1) was “no any effect”, the “Effect on channel current” value (Nav1.5) was “no any effect” and the “Effect on channel current” value (Kv4.3) was “no any effect”. The “Effect on channel current” value (Kv1.5) was “no any effect”, the “Effect on channel current” value (hERG) was “no any effect” and the “Effect on channel current” value (Kv1.4) was “no any effect”. For the same compound, the Lysis of bacteria [1] was “lytic effect”, the “Anti-drug antibody in AMSIN-treated mouse serum” value [2] was “no obvious anti‐drug antibody” and the “Residual antibacterial activity” value [3] was “full antibacterial activity”. The “Complex formation by ESI-MS” value (HNP1&2) was “no complex formation”, the “Complex formation by ESI-MS” value (hLZc (lysozyme C)) was “no complex formation” and the “Viable SM cells in killing kinetics” value ([4]; 0 min, start 1 × 10^8 CFU/ml) was 8 Log10 (CFU/mL). For the same compound, the “Viable SM cells in killing kinetics” value ([4]; 15 min) was 9 Log10 (CFU/mL), the “Viable SM cells in killing kinetics” value ([4]; 30 min) was 8.9 Log10 (CFU/mL) and the “Viable SM cells in killing kinetics” value ([4]; 120 min) was 8.7 Log10 (CFU/mL). The “Viable SM cells in killing kinetics” value ([4]; 240 min) was 8.5 Log10 (CFU/mL) and the “Activity in serum compared with in H2O” value [5] was “slight decrease”.
